Assay results published in US7122545B2, “Imidazo-benzothiazoles” (Hoffmann-La Roche Inc., priority 2003, dated 2006).
Where a name gives a salt, the structure may show the parent alone.

Assays:
[1] = target: T1, human adenosine A2A receptor (Homo sapiens, UniProt P29274); assay: Human adenosine A2A receptor [3H]-SCH-58261 binding assay (SPA); conditions: recombinant receptor in CHO cell membranes; [3H]-SCH-58261 1 nM; Ki by Cheng-Prussoff; read-out: hA2 (pKi) (converted)
T1 construct: expressed in transfected cells; host or cells: CHO cells, semliki forest virus expression system; membrane preparation
T1 sequence (P29274 whole entry): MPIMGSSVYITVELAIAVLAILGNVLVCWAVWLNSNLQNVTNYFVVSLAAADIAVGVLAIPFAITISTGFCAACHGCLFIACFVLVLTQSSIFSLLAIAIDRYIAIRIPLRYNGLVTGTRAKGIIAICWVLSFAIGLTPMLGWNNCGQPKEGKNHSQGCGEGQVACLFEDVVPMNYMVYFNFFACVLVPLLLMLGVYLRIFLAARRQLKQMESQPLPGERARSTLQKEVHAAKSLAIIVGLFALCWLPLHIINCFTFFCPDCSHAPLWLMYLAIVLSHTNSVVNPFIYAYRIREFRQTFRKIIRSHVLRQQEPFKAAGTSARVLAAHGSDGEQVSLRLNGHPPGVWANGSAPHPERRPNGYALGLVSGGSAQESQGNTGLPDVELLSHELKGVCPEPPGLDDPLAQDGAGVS
Method: Human Adenosine A2A Receptor
(§1) The human adenosine A2A receptor was recombinantly expressed in Chinese hamster ovary (CHO) cells using the semliki forest virus expression system. Cells were harvested, washed twice by centrifugation, homogenized and again washed by centrifugation. The final washed membrane pellet was suspended in a Tris (50 mM) buffer containing 120 mM NaCl, 5 mM KCl, 2 mM CaCl2 and 10 mM MgCl2 (pH 7.4) (buffer A). The [^3H]-SCH-58261 (Dionisotti et al., 1997, Br J Pharmacol 121, 353; 1 nM) binding assay was carried out in 96-well plates in the presence of 2.5 μg of membrane protein, 0.5 mg of Ysi-poly-1-lysine SPA beads and 0.1 U adenosine deaminase in a final volume of 200 μl of buffer A. Non-specific binding was defined using xanthine amine congener (XAC; 2 μM). Compounds were tested at 10 concentrations from 10 μM-0.3 nM. All assays were conducted in duplic and repeated at least two times. Assay plates were incubated for hour at room temperature before centrifugation and then bound ligand determined using a Packard Topcount scintillation counter. IC50 values were calculated using a non-linear curve fitting program and Ki values calculated using the Cheng-Prussoff equation.

[2] = target: T2, human adenosine A1 receptor (Homo sapiens, UniProt P30542); assay: Human adenosine A1 receptor [3H]-DPCPX binding assay (SPA); conditions: recombinant receptor in CHO cell membranes; [3H]-DPCPX 0.6 nM; Ki by Cheng-Prussoff; read-out: hA1 (pKi) (converted)
T2 construct: expressed in transfected cells; host or cells: CHO cells, semliki forest virus expression system; membrane preparation
T2 sequence (P30542 1-326): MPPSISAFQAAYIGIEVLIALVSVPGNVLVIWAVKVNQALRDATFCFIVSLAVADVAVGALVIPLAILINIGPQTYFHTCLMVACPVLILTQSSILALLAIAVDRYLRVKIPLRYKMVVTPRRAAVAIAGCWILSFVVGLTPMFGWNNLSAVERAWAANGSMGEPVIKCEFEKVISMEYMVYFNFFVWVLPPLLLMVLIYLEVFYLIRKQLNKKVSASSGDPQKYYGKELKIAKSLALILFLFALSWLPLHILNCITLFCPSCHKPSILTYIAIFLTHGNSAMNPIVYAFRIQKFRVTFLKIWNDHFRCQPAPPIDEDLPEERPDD
Method: Human Adenosine A1 receptor
as §1, with “human adenosine A1 receptor was” for “human adenosine A2A receptor was”, “A). The [^3H]-DPCPX (([propyl-^3H]8-cyclopentyl-1,3-dipropyxanthine); 0.6 nM) binding” for “A). The [^3H]-SCH-58261 (Dionisotti et al., 1997, Br J Pharmacol 121, 353; 1 nM) binding”, “from 10 μM–0.3 nM. All” for “from 10 μM-0.3 nM. All”, “conducted in duplicate and repeated” for “conducted in duplic and repeated”, “incubated for 1 hour at” for “incubated for hour at”

SMILES	melting point [°C]	Ki [1] [nM]	Ki [2] [nM]
COc1ccc(N2CCOCC2)c2sc(-c3nc(-c4ccc5c(c4)OCCO5)c[nH]3)nc12 [Example 16, 2-[4-(2,3-Dihydro-benzo[1,4]dioxin-6-yl)-1H-imidazol-2-yl]-4-methoxy-7-morpholin-4-yl-benzothiazole]	235 to 237	–	–
COc1ccc(N2CCOCC2)c2sc(-c3ncc[nH]3)nc12 [Example 1, 2-(1H-Imidazol-2-yl)-4-methoxy-7-morpholin-4-yl-benzothiazole]	–	12.6	1000
COc1ccc(N2CCOCC2)c2sc(-c3nc4ccc(N(C)CC5CCOCC5)nc4[nH]3)nc12 [Example 14, [2-(4-Methoxy-7-morpholin-4-yl-benzothiazol-2-yl)-3H-imidazo[4,5-b]pyridin-5-yl]-methyl-(tetrahydro-pyran-4-ylmethyl)-amine]	–	3.16	2510
COc1ccc(-c2ccccc2)c2sc(-c3ncc[nH]3)nc12 [Example 4, 2-(1H-Imidazol-2-yl)-4-methoxy-7-phenyl-benzothiazole]	205 to 206	5.01	200
COc1ccc(N2CCOCC2)c2sc(-c3nc4ccc(Cl)nc4[nH]3)nc12 [Example 6, 5-Chloro-2-(4-methoxy-7-morpholin-4-yl-benzothiazol-2-yl)-3H-imidazo[4,5-b]pyridine]	–	3.16	–
COc1ccc(N2CCOCC2)c2sc(-c3nc(-c4ccccc4)c[nH]3)nc12 [Example 15, 4-Methoxy-7-morpholin-4-yl-2-(4-phenyl-1H-imidazol-2-yl)-benzothiazole]	226 to 233	–	–
COc1ccc(N2CCOCC2)c2sc(-c3nc4c([nH]3)CCNC4)nc12.Cl	268 to 271	–	–
COc1ccc(N2CCOCC2)c2sc(-c3nc4ccccc4n3C)nc12 [Example 3, 4-Methoxy-2-(1-methyl-1H-benzoimidazol-2-yl)-7-morpholin-4-yl-benzothiazole]	283 to 285	100	–
COCn1c(-c2nc3c(OC)ccc(N4CCOCC4)c3s2)nc2ccc(Cl)nc21 [Example 7, 5-Chloro-3-methoxymethyl-2-(4-methoxy-7-morpholin-4-yl-benzothiazol-2-yl)-3H-imidazo[4,5-b]pyridine]	167 to 170	–	–
COc1ccc(N2CCOCC2)c2sc(-c3nc4c([nH]3)CCNCC4)nc12.Cl	267 to 269	–	–
COc1ccc(N2CCOCC2)c2sc(-c3nc4ccc(N5CCOCC5)nc4[nH]3)nc12 [Example 9, 2-(4-Methoxy-7-morpholin-4-yl-benzothiazol-2-yl)-5-morpholin-4-yl-3H-imidazo[4,5-b]pyridine]	–	2.51	–
COc1ccc(N2CCOCC2)c2sc(-c3nc4ccccc4[nH]3)nc12 [Example 2, 2-(1H-Benzoimidazol-2-yl)-4-methoxy-7-morpholin-4-yl-benzothiazole]	284 to 286	0.501	158

Second part, the compound after the results:

melting point [°C]	Ki [1] [nM]	Ki [2] [nM]	SMILES
170	–	–	COc1ccc(N2CCOCC2)c2sc(-c3nc(-c4ccsc4)c[nH]3)nc12 (as salt: ammonium) [Example 19, 4-Methoxy-7-morpholin-4-yl-2-(4-thiophen-3-yl-1H-imidazol-2-yl)-benzothiazole]
213 to 215	50.1	–	COc1ccc(N2CCOCC2)c2sc(-c3ncc(-c4sc5ccccc5c4C)[nH]3)nc12 [Example 20, 4-Methoxy-2-[5-(3-methyl-benzo[b]thiophen-2-yl)-1H-imidazol-2-yl]-7-morpholin-4-yl-benzothiazole]
–	2.51	794	COc1ccc(N2CCOCC2)c2sc(-c3nc4c([nH]3)CCCC4)nc12 [Example 22, 4-Methoxy-7-morpholin-4-yl-2-(4,5,6,7-tetrahydro-1H-benzoimidazol-2-yl)-benzothiazole]
155 to 157	–	–	COc1ccc(N2CCOCC2)c2sc(-c3nc4c([nH]3)CCN(C(C)=O)C4)nc12 [Example 39, 1-[2-(4-Methoxy-7-morpholin-4-yl-benzothiazol-2-yl)-1,4,6,7-tetrahydro-imidazo[4,5-c]pyridin-5-yl]-ethanone]
203 to 204	1.26	398	COc1ccc(N2CCOCC2)c2sc(-c3nc4c([nH]3)COCC4)nc12 [Example 23, 2-(4-Methoxy-7-morpholin-4-yl-benzothiazol-2-yl)-3,4,6,7-tetrahydro-pyrano[3,4-d]imidazole]
161 to 162	–	–	COc1ccc(N2CCOCC2)c2sc(-c3ncc(-c4csc5ccccc45)[nH]3)nc12 [Example 17, 2-(5-Benzo[b]thiophen-3-yl-1H-imidazol-2-yl)-4-methoxy-7-morpholin-4-yl-benzothiazole]
205 to 207	1	631	COc1ccc(N2CCOCC2)c2sc(-c3nc4c([nH]3)CCN(C(=O)c3ccc(F)cc3)CC4)nc12 [Example 26, (4-Fluoro-phenyl)-[2-(4-methoxy-7-morpholin-4-yl-benzothiazol-2-yl)-4,5,7,8-tetrahydro-1H-imidazo[4,5-d]azepin-6-yl]-methanone]
165	–	–	COc1ccc(N2CCOCC2)c2sc(-c3nc(-c4cccs4)c[nH]3)nc12 (as salt: ammonium) [Example 18, 4-Methoxy-7-morpholin-4-yl-2-(4-thiophen-2-yl-1H-imidazol-2-yl)-benzothiazole]
220 to 224	–	–	COc1ccc(C2CCOCC2)c2sc(-c3ncc[nH]3)nc12 [Example 45, 2-(1H-Imidazol-2-yl)-4-methoxy-7-(tetrahydro-pyran-4-yl)-benzothiazole]
194 to 196	1.26	1580	COc1ccc(N2CCOCC2)c2sc(-c3nc4c([nH]3)CCN(C(=O)c3ccccc3C)CC4)nc12 [Example 28, [2-(4-Methoxy-7-morpholin-4-yl-benzothiazol-2-yl)-4,5,7,8-tetrahydro-1H-imidazo[4,5-d]azepin-6-yl]-o-tolyl-methanone]
–	1.58	1260	COc1ccc(N2CCOCC2)c2sc(-c3nc4c([nH]3)CCN(C(=O)C3CC3)CC4)nc12 [Example 30, Cyclopropyl-[2-(4-methoxy-7-morpholin-4-yl-benzothiazol-2-yl)-4,5,7,8-tetrahydro-1H-imidazo[4,5-d]azepin-6-yl]-methanone]
299 to 302	–	–	COc1ccc(N2CCOCC2)c2sc(-c3nc4c([nH]3)CCN(CC(N)=O)CC4)nc12 [Example 46, 2-[2-(4-Methoxy-7-morpholin-4-yl-benzothiazol-2-yl)-4,5,7,8-tetrahydro-1H-imidazo[4,5-d]azepin-6-yl]-acetamide]
165	–	–	COc1ccc(N2CCOCC2)c2sc(-c3nc(Cc4cccs4)c[nH]3)nc12 (as salt: ammonium) [Example 21, 4-Methoxy-7-morpholin-4-yl-2-(4-thiophen-2-ylmethyl-1H-imidazol-2-yl)-benzothiazole]
142 to 144	–	–	COc1ccc(N2CCOCC2)c2sc(-c3nc4c([nH]3)CCN(C(=O)OC(C)(C)C)CC4)nc12 [Example 24, 2-(4-Methoxy-7-morpholin-4-yl-benzothiazol-2-yl)-4,5,7,8-tetrahydro-1H-imidazo[4,5-d]azepine-6-carboxylic acid tert-butyl ester]
165	–	–	COc1ccc(N2CCOCC2)c2sc(-c3nc4c([nH]3)CCCC4)nc12 (as salt: ammonium) [Example 22, 4-Methoxy-7-morpholin-4-yl-2-(4,5,6,7-tetrahydro-1H-benzoimidazol-2-yl)-benzothiazole]
195 to 197	–	–	COc1ccc(N2CCOCC2)c2sc(-c3nc4c([nH]3)CCN(C(C)=O)CC4)nc12 [Example 27, 1-[2-(4-Methoxy-7-morpholin-4-yl-benzothiazol-2-yl)-4,5,7,8-tetrahydro-1H-imidazo[4,5-d]azepin-6-yl]-ethanone]
